Measurements taken from ChEMBL document CHEMBL1201862, “PubChem BioAssay data set” (2004).
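Test compounds were applied to cells in 96-well plates for 48 hours at 5 doses. GI50: concentration for 50% inhibition of growth.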 The source made the active and inactive calls. Rule as the data show it: active = GI50 up to about 1.1 µM and inactive = higher.

What was measured:
Assay in all cases: NCI tumour cell line growth inhibition, 48 h
786-0 = tested on: 786-0
A498 = tested on: A498
ACHN = tested on: ACHN
COLO 205 = tested on: COLO 205
DU-145 = tested on: DU-145
HCC 2998 = tested on: HCC 2998
HCT-116 = tested on: HCT-116
HOP-62 = tested on: HOP-62
HT-29 = tested on: HT-29
Hs-578T = tested on: Hs-578T
KM12 = tested on: KM12
MCF7 = tested on: MCF7
NCI-H460 = tested on: NCI-H460
SF-295 = tested on: SF-295
SK-MEL-2 = tested on: SK-MEL-2
SK-MEL-5 = tested on: SK-MEL-5
SW-620 = tested on: SW-620
UACC-62 = tested on: UACC-62
CCRF-CEM = tested on: CCRF-CEM
K562 = tested on: K562

SMILES | GI50 (786-0) | GI50 (A498) | GI50 (ACHN) | GI50 (COLO 205) | GI50 (DU-145) | GI50 (HCC 2998) | GI50 (HCT-116) | GI50 (HOP-62) | GI50 (HT-29) | GI50 (Hs-578T) | GI50 (KM12) | GI50 (MCF7) | GI50 (NCI-H460) | GI50 (SF-295) | GI50 (SK-MEL-2) | GI50 (SK-MEL-5) | GI50 (SW-620) | GI50 (UACC-62) | GI50 (CCRF-CEM) | GI50 (K562)
O=C(Cc1ccccc1)NN1C(=O)/C(=C\c2ccccc2O)S/C1=N\c1ccccc1 | > 100 µM (inactive) | > 100 µM (inactive) | > 100 µM (inactive) | > 100 µM (inactive) | > 100 µM (inactive) | > 100 µM (inactive) | > 100 µM (inactive) | > 100 µM (inactive) | > 100 µM (inactive) | > 100 µM (inactive) | > 100 µM (inactive) | > 100 µM (inactive) | > 100 µM (inactive) | > 100 µM (inactive) | > 100 µM (inactive) | > 100 µM (inactive) | > 100 µM (inactive) | > 100 µM (inactive) | – | –
C1CCNCC1.Oc1ncnc2[nH]cc(CN3CCCCC3)c12 | 22.9 µM (inactive) | > 100 µM (inactive) | 98.4 µM (inactive) | 73.3 µM (inactive) | 32.5 µM (inactive) | – | 15.7 µM (inactive) | > 100 µM (inactive) | 39.3 µM (inactive) | > 100 µM (inactive) | > 100 µM (inactive) | 28.8 µM (inactive) | 16 µM (inactive) | > 100 µM (inactive) | > 100 µM (inactive) | > 100 µM (inactive) | 38 µM (inactive) | 83.9 µM (inactive) | 16.4 µM (inactive) | > 100 µM (inactive)
O=C1C2CCN(CC2)C1(CO)CO | 28.2 µM (inactive) | > 51.1 µM (inactive) | 17.9 µM (inactive) | 18.7 µM (inactive) | 17.3 µM (inactive) | – | 17 µM (inactive) | > 88.5 µM (inactive) | 28 µM (inactive) | 31.3 µM (inactive) | 64.7 µM (inactive) | 24.7 µM (inactive) | 66.7 µM (inactive) | > 100 µM (inactive) | 71.8 µM (inactive) | 47.4 µM (inactive) | 18.2 µM (inactive) | 25.1 µM (inactive) | 5.06 µM (inactive) | 23.6 µM (inactive)
Cc1cc(S(=O)(=O)Nc2nc3cccnc3[nH]2)c(S)cc1Cl | > 100 µM (inactive) | > 100 µM (inactive) | > 100 µM (inactive) | > 100 µM (inactive) | > 100 µM (inactive) | > 100 µM (inactive) | > 100 µM (inactive) | > 100 µM (inactive) | > 100 µM (inactive) | 74 µM (inactive) | > 100 µM (inactive) | > 100 µM (inactive) | 73.5 µM (inactive) | 58.1 µM (inactive) | – | 71.9 µM (inactive) | > 100 µM (inactive) | 85.1 µM (inactive) | > 100 µM (inactive) | > 100 µM (inactive)
Cc1nc(Nc2ccc(F)cc2)c2sc(=S)n(-c3ccc(F)cc3)c2n1 | 10 µM (inactive) | 16 µM (inactive) | 13.7 µM (inactive) | 14.5 µM (inactive) | 13.4 µM (inactive) | 12.2 µM (inactive) | 3.74 µM (inactive) | 11.8 µM (inactive) | 6.17 µM (inactive) | 14.5 µM (inactive) | 15 µM (inactive) | 5.5 µM (inactive) | 15.5 µM (inactive) | 14.3 µM (inactive) | 15.3 µM (inactive) | 14.6 µM (inactive) | 9.77 µM (inactive) | 16.1 µM (inactive) | – | 33.2 µM (inactive)
CC(=O)C(C(C)=O)=C1CCCC(O)O1 (configuration not stated) | > 100 µM (inactive) | > 100 µM (inactive) | > 100 µM (inactive) | > 100 µM (inactive) | > 100 µM (inactive) | > 100 µM (inactive) | > 100 µM (inactive) | > 100 µM (inactive) | > 100 µM (inactive) | 47.4 µM (inactive) | > 100 µM (inactive) | > 100 µM (inactive) | > 100 µM (inactive) | > 100 µM (inactive) | – | > 100 µM (inactive) | > 100 µM (inactive) | > 100 µM (inactive) | 48.5 µM (inactive) | > 100 µM (inactive)
COc1cc(C2c3cc4c(cc3OC(Nc3ccccc3)C2C)OCO4)cc(OC)c1OC (configuration not stated) | 0.774 µM (active) | 0.324 µM (active) | 1.39 µM (inactive) | 0.415 µM (active) | 0.923 µM (active) | 1.08 µM (active) | 0.42 µM (active) | 0.366 µM (active) | 0.396 µM (active) | 0.479 µM (active) | 0.48 µM (active) | 0.536 µM (active) | 0.524 µM (active) | 0.333 µM (active) | 5.65 µM (inactive) | – | 0.473 µM (active) | 0.621 µM (active) | 0.315 µM (active) | 0.282 µM (active)
